Measurements published in ChEMBL document CHEMBL3046093, “Effect of doses of fungicides and plant resistance activators on the control of Rhizoctonia foliar blight of soybean, and on Rhizoctonia solani AG1-IA in vitro development” (Crop Prot, 2006).
In brackets after ≈: the same amount, converted by molar mass. Activity calls are given as the source filed them. No cut-off for these calls is given here.

Experiments:
[1] = system: Rhizoctonia solani; test: Antifungal activity against Rhizoctonia solani AG-1 IA assessed as reduction of mycelial growth at 10 mg/l relative to control; format: functional; design: scale not given: the % may be the effect or the level left
[2] = system: Rhizoctonia solani; test: Antifungal activity against Rhizoctonia solani AG-1 IA assessed as mycelial growth at 0.1 mg/l (reference value: 40 mm); format: functional
[3] = system: Glycine max; test: Induction of systemic acquired resistance in Glycine max (soybean) plant infected with Rhizoctonia solani AG-1 IA assessed as reduction in disease severity at 12.5 mg a.i/l applied as spray on day 10 prior to inoculation measured after 10 days relative to control; format: functional; design: scale not given: the % may be the effect or the level left
[4] = system: Glycine max; test: Induction of systemic acquired resistance in Glycine max (soybean) plant infected with Rhizoctonia solani AG-1 IA assessed as reduction in disease severity at 25 mg a.i/l applied as spray on day 5 prior to inoculation measured after 10 days relative to control; format: functional, organism-based
[5] = system: Rhizoctonia solani; test: Antifungal activity against Rhizoctonia solani AG-1 IA assessed as mycelial growth at 1 mg/l (reference value: 40 mm); format: functional
[6] = system: Glycine max; test: Induction of systemic acquired resistance in Glycine max (soybean) plant infected with Rhizoctonia solani AG-1 IA assessed as reduction in disease severity at 12.5 mg a.i/l applied as spray on day 10 prior to inoculation measured after 5 days relative to control; format: functional; design: scale not given: the % may be the effect or the level left
[7] = system: Rhizoctonia solani; test: Antifungal activity against Rhizoctonia solani AG-1 IA assessed as reduction of mycelial growth at 100 mg/l relative to control; format: functional; design: scale not given: the % may be the effect or the level left
[8] = system: Rhizoctonia solani; test: Antifungal activity against Rhizoctonia solani AG-1 IA assessed as inhibition of mycelial growth at < 10 mg/l relative to control; format: functional, organism-based
[9] = system: Rhizoctonia solani; test: Protective effect against Rhizoctonia solani AG-1 IA infected soybean plant at 50 g a.i/ha applied as spray at V5 to V6 growth stage prior to inoculation measured after 5 to 10 days under greenhouse condition relative to control; format: functional, organism-based
[10] = system: Rhizoctonia solani; test: Fungicidal activity against Rhizoctonia solani AG-1 IA assessed as inhibition of mycelial radial growth; format: functional, organism-based
[11] = system: Rhizoctonia solani; test: Curative effect against Rhizoctonia solani AG-1 IA infected soybean plant at 50 g a.i/ha applied as spray at V5 to V6 growth stage post inoculation measured after 5 to 10 days under greenhouse condition relative to control; format: functional, organism-based
[12] = system: Rhizoctonia solani; test: Fungicidal activity against Rhizoctonia solani AG-1 IA assessed as mycelial radial growth at 1 mg/l (reference value: 40 mm); format: functional
[13] = system: Rhizoctonia solani; test: Fungicidal activity against Rhizoctonia solani AG-1 IA assessed as mycelial radial growth at 0.1 mg/l (reference value: 40 mm); format: functional
[14] = system: Rhizoctonia solani; test: Fungicidal activity against Rhizoctonia solani AG-1 IA assessed as mycelial radial growth at 10 mg/l (reference value: 40 mm); format: functional
[15] = system: Rhizoctonia solani; test: Fungicidal activity against Rhizoctonia solani AG-1 IA assessed as mycelial radial growth at 100 mg/l (reference value: 40 mm); format: functional
[16] = system: Rhizoctonia solani; test: Protective effect against Rhizoctonia solani AG-1 IA infected soybean plant at 750 g a.i/ha applied as spray at V5 to V6 growth stage prior to inoculation measured after 5 to 10 days under greenhouse condition relative to control; format: functional, organism-based
[17] = system: Rhizoctonia solani; test: Protective effect against Rhizoctonia solani AG-1 IA infected soybean plant at 100 g a.i/ha applied as spray at V5 to V6 growth stage prior to inoculation measured after 5 to 10 days under greenhouse condition relative to control; format: functional, organism-based
[18] = system: Rhizoctonia solani; test: Curative effect against Rhizoctonia solani AG-1 IA infected soybean plant at 100 g a.i/ha applied as spray at V5 to V6 growth stage post inoculation measured after 5 to 10 days under greenhouse condition relative to control; format: functional, organism-based
[19] = system: Glycine max; test: Phytotoxicity in Glycine max (soybean) plant assessed as leaf burning at 200 g a.i/ha; format: organism-based; details: in vivo
[20] = system: Glycine max; test: Phytotoxicity in Glycine max (soybean) plant assessed as dwarfing at 200 g a.i/ha; format: organism-based; details: in vivo
[21] = Rhizoctonia solani, AG-1 IA, read-out: EC50

Compound	EC90 ([10]; Rhizoctonia solani, AG-1 IA) [µg/mL]	EC50 [10, 21] [µg/mL]	Activity [12] [mm]	Activity [13] [mm]	Activity [14] [mm]	Activity [15] [mm]	other results
CSC(=O)c1cccc2nnsc12 [ACIBENZOLAR-S-METHYL]	–	–	–	–	–	–	Activity [1]: 19%; Activity [2]: 40 mm; Activity [3]: 36%; Activity [4]: Active; Activity [5]: 40 mm; Activity [6]: 28.5%; Activity [7]: 55.2%; inhibition [8]: inactive
CO/C=C(/C(=O)OC)c1ccccc1Oc1cc(Oc2ccccc2C#N)ncn1 [AZOXYSTROBIN]	33.1 (≈ 82 µM)	0.668 (≈ 1.66 µM)	16	15.2	13.1	10.3	Activity [9]: Active; Activity [11]: Active
CCCCNC(=O)n1c(NC(=O)OC)nc2ccccc21 [BENOMYL]	17.4 (≈ 60 µM)	0.352 (≈ 1.21 µM)	9.6	38.8	0	0	–
Clc1ccc(C2(Cn3cncn3)CC(Br)CO2)c(Cl)c1 (configuration not stated) [BROMUCONAZOLE]	4.81 (≈ 12.8 µM)	0.097 (≈ 0.257 µM)	8.2	17.9	3.6	0.7	–
COC(=O)Nc1nc2ccccc2[nH]1 [CARBENDAZIM]	8.41 (≈ 44 µM)	0.17 (≈ 0.889 µM)	1.5	39	0	0	–
N#Cc1c(Cl)c(Cl)c(Cl)c(C#N)c1Cl [CHLOROTHALONIL]	49.4 (≈ 186 µM)	0.998 (≈ 3.75 µM)	19.3	30	7.6	4.7	–
CC1COC(Cn2cncn2)(c2ccc(Oc3ccc(Cl)cc3)cc2Cl)O1 (configuration not stated) [DIFENOCONAZOLE]	1.13 (≈ 2.78 µM)	0.023 (≈ 0.0566 µM)	5	6.6	2.7	1.5	–
O=[N+]([O-])c1cc(C(F)(F)F)c(Cl)c([N+](=O)[O-])c1Nc1ncc(C(F)(F)F)cc1Cl [FLUAZINAM]	2.27 (≈ 4.89 µM)	0.046 (≈ 0.0989 µM)	5.1	9.1	4.3	3.4	Activity [16]: Active
N#Cc1c[nH]cc1-c1cccc2c1OC(F)(F)O2 [FLUDIOXONIL]	0.161 (≈ 0.649 µM)	0.003 (≈ 0.0121 µM)	0	7.1	0	0	–
CC(C)NC(=O)N1CC(=O)N(c2cc(Cl)cc(Cl)c2)C1=O [IPRODIONE]	11.8 (≈ 35.6 µM)	0.237 (≈ 0.718 µM)	5.5	39	0	0	–
CO/N=C(/C(=O)OC)c1ccccc1COc1ccccc1C [KRESOXIM-METHYL]	490 (≈ 1560 µM)	9.9 (≈ 31.6 µM)	26.9	26	25.1	22	–
CC12CC1(C)C(=O)N(c1cc(Cl)cc(Cl)c1)C2=O (configuration not stated) [PROCYMIDONE]	–	–	17.6	37.2	1.2	0.6	–
COC(=O)N(OC)c1ccccc1COc1ccn(-c2ccc(Cl)cc2)n1 [PYRACLOSTROBIN]	4.67 (≈ 12.1 µM)	0.094 (≈ 0.242 µM)	8.1	17.8	5.4	0	Activity [17]: Active; Activity [18]: Active
O=C(O)c1ccccc1O [SALICYLIC ACID]	–	–	–	–	–	–	Activity [2]: 40 mm; Activity [5]: 40 mm; inhibition [8]: inactive
CC(C)(C)C(O)(CCc1ccc(Cl)cc1)Cn1cncn1 (configuration not stated) [TEBUCONAZOLE]	2.42 (≈ 7.85 µM)	0.049 (≈ 0.159 µM)	7.6	13.5	3.3	0	Activity [19]: Toxic; Activity [20]: Toxic
c1ccc2[nH]c(-c3cscn3)nc2c1 [THIABENDAZOLE]	10.9 (≈ 54.2 µM)	0.22 (≈ 1.09 µM)	7.3	36.1	0	0	–
COC(=O)NC(=S)Nc1ccccc1NC(=S)NC(=O)OC [THIOPHANATE METHYL]	537 (≈ 1570 µM)	10.8 (≈ 31.7 µM)	36.7	39.6	20.8	0.4	–
TRIPHENYLSTANNANOL [listing 1 of 2 here]	–	–	–	–	–	–	EC50 [10]: 0.112 µg/mL
TRIPHENYLSTANNANOL [listing 2 of 2 here]	–	–	10.6	14.1	6.4	1	EC90 [10]: 5.55 µg/mL
